Data as given in patent publication US20220380801A1, “TRIPARTITE SYSTEMS FOR PROTEIN DIMERIZATION AND METHODS OF USE” (priority 2019, published 2022).

Key:
HCV NS3/4A K136D PR = HCV NS3/4A K136D PR (Hepatitis C virus subtype 1a, UniProt A8DG50, A1066T/I1043Q/I1044E/K1162D/L1039E/L1040E/L1047Q/S1165A, form not given); assay: Octet RED384 simeprevir affinity; assay type: binding
Procedure: The biotinylated HCV NS3/4A PR (S139A), HCV NS3/4A K136D PR, HCV NS3/4A K136N PR and HCV NS3/4A D168E PR were loaded on High Precision Streptavidin (SAX) biosensors at a concentration of 2 μg/ml in 10 mM Hepes pH 7.4, 150 mM NaCl, 0.05% Surfactant P20, 0.3% DMSO. The simeprevir was diluted […] (46.88-3,000 nM) in the same buffer and the loaded biosensors were dipped into the simeprevir samples for 180 sec to measure the association. For the dissociation the biosensors were dipped into the buffer for 600 sec. The traces were analysed using ForteBio Data Analysis software and fit globally using a 1:1 binding model.

MED18852 expression = assay: Transcriptional regulation assay, antibody (MED18852) expression; assay type: cell-based, human; conditions: DBD-PRSIM_23 (three tandem copies); 48 hours after simeprevir
From the text: The DNA sequence encoding MED18852 (SEQ ID NO: 237 and SEQ ID NO: 238, separated by an internal ribosome entry site (IRES) sequence) was purchased as a as a DNA string from GeneArt and cloned into the pZFHD1-2 vector (Takara) downstream of the ZFHD1 inducible promoter using Gibson assembly cloning. The nucleotide sequence of the final construct was confirmed by sequencing.
For the quantification of antibody expression (MED18852) utilising the transcriptional regulation assay, the cells were co-transfected with a pHet-Act1-2 plasmid (containing the HCV NS3/4A PR (S139A):PRSIM_23) and a pZFHD1 plasmid (encoding MED18852); 24 hours later wells were treated with different concentrations of simeprevir. Antibody concentration was determined in the supernatants 48 hours post the addition of simeprevir using MSD kit (Singleplex Human/NHP IgG Isotyping Kit (Mesoscale).

[1] = system: HCT116 cells stably expressing the PRSIM-based kill switch; assay: Kill switch cell viability (phase contrast); assay type: cell-based, human; conditions: 100 nM simeprevir, wt kill switch
Procedure: (§1) HCT116 and HT29 transduced cells were generated following the same protocol with exception of using McCoy's 5A medium+10% foetal bovine serum as growth medium, supplemented with 2 μg/ml puromycin for selection of transduced cells.
(§2) HEK293, HCT116 or HT29 cells stably expressing the PRSIM-based kill switch fusion protein (SEQ ID NO: 223) or HEK293 cells stably expressing the PRSIM kill switch S196A mutant fusion protein (SEQ ID NO: 230) were plated onto collagen-coated 96-well plates and 24 h later treated with 100 nM simeprevir. Phase contrast images were acquired at various timepoints using 10× or 20× objectives on an Incucyte Zoom (EssenBioscience).

[2] = system: HT29 cells stably expressing the PRSIM-based kill switch; assay: Kill switch cell viability (phase contrast); assay type: cell-based, human; conditions: 100 nM simeprevir, wt kill switch
Procedure: as §1, §2

[3] = system: iPSC single-cell clones with B2M-targeted kill switch; assay: Real-time cell analysis (RTCA) of kill switch activity in iPS cells; assay type: cell-based, human; conditions: 1 nM simeprevir
From the text: A stable induced pluripotency stem cell (iPSC) line (a single clone (B-3/1F1) derived from the fibroblast cells of a healthy human donor from Research Specimen Collection Program of Astrazeneca) stably expressing the simeprevir-inducible kill switch was generated using CRISPR/Cas9 technology, using AAV-encoded DNA as template for targeted integration into the β2 microglobulin (B2M) locus.
The donor construct (FIG. 33A) encoding the PRSIM-based kill switch (SEQ ID 223) was synthesized and purchased from GenScript, Inc. and was subcloned into an AAV shuttle plasmid backbone. The donor construct was packaged into adeno-associated viral (AAV) particles; briefly, the donor plasmid was co-transfected with two helper plasmids, pAd5Helper and pR2C6, encoding adenoviral components essential for AAV replication and AAV2 replication (rep)/AAV6 capsid (cap) proteins respectively. After 72 hours, the cells were collected and were disrupted by freeze-thawing. The cell lysate was digested with Benzonase (100 U/ml) for 1 hour at 37° C. and were centrifugated. The vector-containing supernatant was collected and applied to Iodixanol gradient followed by ultracentrifugation. After ultracentrifugation, the vector containing solution was collected and washed with 20 mL PBS in a centrifugal concentrator tube for 3 times. Finally, the solution was concentrated to 1 mL. […]

COc1ccc2c(O[C@@H]3C[C@H]4C(=O)N[C@]5(C(=O)NS(=O)(=O)C6CC6)C[C@H]5/C=C\CCCCN(C)C(=O)[C@@H]4C3)cc(-c3nc(C(C)C)cs3)nc2c1C [simeprevir] was tested, and the Kd (HCV NS3/4A K136D PR) was 62.6 nM, the “decreased simeprevir affinity compared to ‘WT’ (S139A)” value (HCV NS3/4A K136D PR) was ~3.5 fold and the koff (HCV NS3/4A K136D PR) was 0.00234 s⁻¹. For the same compound, the kon (HCV NS3/4A K136D PR) was 36200 M⁻¹ s⁻¹, the “expression of MED18852” value (MED18852 expression) was “dependent on the dose of simeprevir” and the cell death [1] was “rapid cell death”. For the same compound, the cell death [2] was “rapid cell death”, the cell proliferation index ([3]; clones encoding the kill switch) was “dramatic reduction in cell proliferation index after 5 hours” and the cell proliferation index ([3]; parental iPSC cells) was “continued to proliferate”.
